Reference: US12410152B2, “Oxazole and thioazole-type cullin ring ubiquitin ligase compounds and uses thereof” (Proxygen GmbH, priority 2019, dated 2025)

System: KBM7 WT cells (global proteome)
Experiment: Quantitative expression proteomics (TMT isobaric tagging), drug vs DMSO
Assay type: cell-based, human
Text: The mechanism by which the assayed molecules re-program a functional CRL4B complex based on the data shown could be that drug binding to CUL4B recruits a neo-substrate directly to the cullin backbone. Alternatively, drug binding could stabilize CUL4B function to boost time intervals where a functionally competent CUL4B complexes can be formed. Here, the word “functional” implies that the CUL4B backbone of this complex needs to be neddylated, and a CUL4B associated E2 ubiquitin-conjugating enzyme (UBE2G1) needs to be bound. FIG. 9 outlines one possible mechanism. Both predicted mechanisms of action would result in a functionally altered CRL4B complex, and thus an altered stability of drug-induced (neo-) substrates. In order to identify target proteins with a decreased abundance or, in other words, target proteins that become degraded by CRL4B after drug treatment, global proteome composition was measured using quantitative expression proteomics (TMT-labeling). In brief, KBM7 cells were drug treated for 12 hours, lysed, and subjected to isobaric tagging. Ensuing proteomics analysis quantified a total of 7,903 proteins at a minimum spectral count of 2. […] Data on essentiality are taken from Hart et al., G3, August 2017 (PMID: 28655737).
50×10^6 KBM7^WT cells per condition were collected, washed four times with ice-cold PBS, the supernatant aspirated and pellets snap-frozen in liquid N2. Each washed cell pellet was lysed separately in 40 μL of freshly prepared lysis buffer as previously described (see Mayor-Ruiz et al., Mol Cell 2019)
Offline Fractionation via RP-HPLC at high pH and 2D-RP/RP Liquid Chromatography Mass Spectrometry were performed as previously described (see Mayor-Ruiz et al., Mol Cell 2019).
Acquired raw data files were processed using the Proteome Discoverer 2.2.0 platform, utilizing the Sequest HT database search engine and Percolator validation software node (V3.04) to remove false positives with a false discovery rate (FDR) of 1% on peptide and protein level under strict conditions. Searches were performed with full tryptic digestion against the human SwissProt database v2017.06 with up to two allowed miscleavage sites. Oxidation (+15.9949 Da) of methionine was set as variable modification, whilst carbamidomethylation (+57.0214 Da) of cysteine residues and TMT 6-plex labelling of peptide N-termini and lysine residues were set as fixed modifications. Data was searched with mass tolerances of ±10 ppm and ±0.02 Da on the precursor and fragment ions, respectively. Results were filtered to include peptide spectrum matches (PSMs) with Sequest HT cross-correlation factor (Xcorr) scores of […] and high peptide confidence assigned by Percolator. MS^2 signal-to-noise values (S/N) values of TMT reporter ions were used to estimate peptide/protein abundance changes. PSMs with precursor isolation interference values of ≥ 50% and average TMT-reporter ion S/N≤10 were excluded from quantitation. Only unique peptides were used for TMT quantitation as well as for TOP3 label-free quantitation. Isotopic impurity correction and TMT channel-normalization based on total peptide amount were applied. For statistical analysis and p-value calculation, the integrated ANOVA hypothesis test was used. TMT ratios with p-values below 0.01 were considered as significant. Only proteins with >1 peptide detected and >1 unique peptide detected were considered for further analysis. For the calling of destabilized proteins, a log 2 fold change threshold (drug/DMSO) of −0.3 was applied.
Comparison of overall proteome-wide changes in KBM7 cells treated with IC020772.1 (2.5 μM), IC021313.2 (7 μM) or T6938051 (3.5 μM) for 5 h and 12h, using quantitative proteomics based on isobaric tagging.
The protein names in Table 4, Table 5 and Table 6 refer to the protein names as provided by HUGO Gene Nomenclature Committee (HGNC) database. […]

SMILES: O=C(CSc1nc2ccccc2[nH]1)Nc1ccc(Cl)cn1 [IC021313.2]
- number of proteins significantly downregulated (log2FC < -0.3), destabilized proteins (KBM7 cells, 12 hours, ~10xEC50, 7,903 proteins quantified): 839
- number of downregulated proteins known to be implicated in KBM7 proliferation (essential for KBM7 viability) (KBM7 cells, 12 hours, essentiality from Hart et al. 2017): 183
- logFC (IC021313.2/DMSO) (protein AKAP11 (Q9UKA4), essential: false): −0.3004
- logFC (IC021313.2/DMSO) (protein ALKBH3 (Q96Q83-1), essential: false): −0.3129
- logFC (IC021313.2/DMSO) (protein ALKBH4 (Q9NXW9-1), essential: false): −0.3111
- logFC (IC021313.2/DMSO) (protein ATXN7L3B (Q96GX2), essential: false): −0.3111
- logFC (IC021313.2/DMSO) (protein BMT2 (Q1RMZ1), essential: false): −0.3111
- logFC (IC021313.2/DMSO) (protein C10orf88 (Q9H8K7), essential: false): −0.3004
- logFC (IC021313.2/DMSO) (protein CCNC (P24863-1), essential: false): −0.3129
- logFC (IC021313.2/DMSO) (protein CHMP4B (Q9H444), essential: true): −0.3129
- logFC (IC021313.2/DMSO) (protein CIT (O14578-4), essential: false): −0.3147
- logFC (IC021313.2/DMSO) (protein CREB1 (P16220-1), essential: false): −0.3147
- logFC (IC021313.2/DMSO) (protein CUEDC2 (Q9H467), essential: false): −0.3129
- logFC (IC021313.2/DMSO) (protein DCUN1D4 (Q92564-3), essential: false): −0.3004
- logFC (IC021313.2/DMSO) (protein DGCR14 (Q96DF8), essential: true): −0.3129
- logFC (IC021313.2/DMSO) (protein DSG2 (Q14126), essential: false): −0.3111
- logFC (IC021313.2/DMSO) (protein EIF4B (P23588-1), essential: false): −0.3129
- logFC (IC021313.2/DMSO) (protein ENTPD6 (O75354-1), essential: false): −0.3004
- logFC (IC021313.2/DMSO) (protein EPN1 (Q9Y6I3-2), essential: false): −0.3022
- logFC (IC021313.2/DMSO) (protein FADS1 (O60427-1), essential: false): −0.3147
- logFC (IC021313.2/DMSO) (protein FAM122A (Q96E09), essential: true): −0.3022
- logFC (IC021313.2/DMSO) (protein GTF2H1 (P32780-1), essential: true): −0.3022
- logFC (IC021313.2/DMSO) (protein GUCY1A3 (Q02108-1), essential: false): −0.3129
- logFC (IC021313.2/DMSO) (protein KIF15 (Q9NS87-1), essential: false): −0.3022
- logFC (IC021313.2/DMSO) (protein NCAPD2 (Q15021), essential: true): −0.3094
- logFC (IC021313.2/DMSO) (protein NDRG3 (Q9UGV2-1), essential: false): −0.3111
- logFC (IC021313.2/DMSO) (protein NUFIP1 (Q9UHK0), essential: true): −0.3129
- logFC (IC021313.2/DMSO) (protein PFDN5 (Q99471-1), essential: false): −0.3111
- logFC (IC021313.2/DMSO) (protein PHF8 (Q9UPP1-1), essential: false): −0.3022
- logFC (IC021313.2/DMSO) (protein PLSCR1 (O15162-1), essential: false): −0.3111
- logFC (IC021313.2/DMSO) (protein PO1A (Q8NBT0-1), essential: false): −0.3022
- logFC (IC021313.2/DMSO) (protein PPIL4 (Q8WUA2), essential: false): −0.3004
- logFC (IC021313.2/DMSO) (protein PSD4 (Q8NDX1-1), essential: false): −0.3022
- logFC (IC021313.2/DMSO) (protein PUS3 (Q9BZE2), essential: false): −0.3022
- logFC (IC021313.2/DMSO) (protein PVR (P15151-1), essential: false): −0.3004
- logFC (IC021313.2/DMSO) (protein PYM1 (Q9BRP8-1), essential: false): −0.3022
- logFC (IC021313.2/DMSO) (protein RAD54L (Q92698), essential: false): −0.3004
- logFC (IC021313.2/DMSO) (protein RASSF5 (Q8WWW0-2), essential: false): −0.3022
- logFC (IC021313.2/DMSO) (protein RPS17 (P08708), essential: true): −0.3094
- logFC (IC021313.2/DMSO) (protein SKP2 (Q13309-1), essential: false): −0.3111
- logFC (IC021313.2/DMSO) (protein SLC10A4 (Q96EP9), essential: false): −0.3111
- logFC (IC021313.2/DMSO) (protein SLCO4A1 (Q96BD0-1), essential: false): −0.3004
- logFC (IC021313.2/DMSO) (protein SUV39H1 (O43463-2), essential: false): −0.3004
- logFC (IC021313.2/DMSO) (protein TANC2 (Q9HCD6-2), essential: false): −0.3129
- logFC (IC021313.2/DMSO) (protein TFAP4 (Q01664), essential: true): −0.3094
- logFC (IC021313.2/DMSO) (protein USP12 (O75317), essential: false): −0.3004
- logFC (IC021313.2/DMSO) (protein WDR76 (Q9H967), essential: false): −0.3004
- logFC (IC021313.2/DMSO) (protein ZNF770 (Q6IQ21), essential: false): −0.3004
- logFC (IC021313.2/DMSO) (protein ZWILCH (Q9H900-1), essential: false): −0.3022
